Patent publication US20240269139A1, “COMPOUNDS FOR TARGETED PROTEIN DEGRADATION OF KINASES” (DANA-FARBER CANCER INSTITUTE, INC., priority 2020, published 2024)
“And” between values parts separate entries of the source, which are not always exact repeats. Equal values may be shown once. Read-outs that look alike come from different tables or passages of the source.

Assays:
Type in all cases: cell-based
[1] = target: protein kinases (human kinome) (Homo sapiens, UniProt Q9H0K1); settings: for logFC of SIK2: Accession Q9H0K1; for logFC SIK2 (Q9H0K1): direction of change down; for logFC SIK2: SIK2 (Q9H0K1), down
[2] = target: T1, protein kinases (human kinome) (Homo sapiens, UniProt O75385); settings: for logFC: ULK1 (O75385) protein abundance, degrader vs DMSO, down; for logFC ULK1: ULK1 O75385
T1 sequence (O75385 1-1050): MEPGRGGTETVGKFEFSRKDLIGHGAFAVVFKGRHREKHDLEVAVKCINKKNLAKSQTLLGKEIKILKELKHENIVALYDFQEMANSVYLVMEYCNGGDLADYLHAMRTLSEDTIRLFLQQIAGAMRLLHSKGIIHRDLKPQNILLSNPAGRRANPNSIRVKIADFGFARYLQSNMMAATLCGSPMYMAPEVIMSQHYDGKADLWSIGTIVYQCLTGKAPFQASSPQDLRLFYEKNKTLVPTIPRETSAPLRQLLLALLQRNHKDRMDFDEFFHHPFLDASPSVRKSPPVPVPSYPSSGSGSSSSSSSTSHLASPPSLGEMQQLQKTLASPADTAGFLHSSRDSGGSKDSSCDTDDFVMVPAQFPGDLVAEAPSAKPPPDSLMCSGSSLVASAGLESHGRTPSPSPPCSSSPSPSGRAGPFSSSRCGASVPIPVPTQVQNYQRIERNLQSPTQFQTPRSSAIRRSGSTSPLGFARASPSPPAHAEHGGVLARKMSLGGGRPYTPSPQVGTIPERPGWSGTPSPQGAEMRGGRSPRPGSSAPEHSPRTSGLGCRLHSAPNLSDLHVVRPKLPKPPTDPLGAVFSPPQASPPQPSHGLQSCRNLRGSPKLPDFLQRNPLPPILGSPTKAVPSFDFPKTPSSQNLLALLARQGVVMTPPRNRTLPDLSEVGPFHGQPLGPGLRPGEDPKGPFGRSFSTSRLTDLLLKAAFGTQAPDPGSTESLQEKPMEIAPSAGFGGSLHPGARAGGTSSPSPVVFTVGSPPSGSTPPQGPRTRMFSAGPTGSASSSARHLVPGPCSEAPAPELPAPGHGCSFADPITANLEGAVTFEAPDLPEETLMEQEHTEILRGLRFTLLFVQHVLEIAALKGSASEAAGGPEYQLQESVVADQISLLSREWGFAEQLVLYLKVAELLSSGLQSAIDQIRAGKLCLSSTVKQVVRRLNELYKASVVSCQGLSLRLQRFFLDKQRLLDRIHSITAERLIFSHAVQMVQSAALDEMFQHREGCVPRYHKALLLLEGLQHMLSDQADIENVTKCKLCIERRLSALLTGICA

[3] = target: T2, protein kinases (human kinome) (Homo sapiens, UniProt O14965)
T2 sequence (O14965 1-403): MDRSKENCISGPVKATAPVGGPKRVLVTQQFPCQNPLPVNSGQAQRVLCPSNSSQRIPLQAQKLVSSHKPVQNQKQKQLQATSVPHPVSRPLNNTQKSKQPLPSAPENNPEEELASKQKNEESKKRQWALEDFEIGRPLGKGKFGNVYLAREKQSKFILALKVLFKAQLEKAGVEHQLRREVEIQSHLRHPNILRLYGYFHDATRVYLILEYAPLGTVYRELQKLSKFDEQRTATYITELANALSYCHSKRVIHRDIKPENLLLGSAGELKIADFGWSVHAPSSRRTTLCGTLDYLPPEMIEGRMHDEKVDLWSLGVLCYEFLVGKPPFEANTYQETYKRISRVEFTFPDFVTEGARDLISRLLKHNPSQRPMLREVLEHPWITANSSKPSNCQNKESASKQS

[4] = target: protein kinases (human kinome) (Homo sapiens, UniProt P11802)
[5] = target: protein kinases (human kinome) (Homo sapiens, UniProt P53671); settings: for logFC LIMK2: LIMK2 (P53671), down; for logFC of LIMK2: LIMK2 P53671
protein kinases (human kinome) (Homo sapiens, UniProt P53671), sequence (P53671 whole entry): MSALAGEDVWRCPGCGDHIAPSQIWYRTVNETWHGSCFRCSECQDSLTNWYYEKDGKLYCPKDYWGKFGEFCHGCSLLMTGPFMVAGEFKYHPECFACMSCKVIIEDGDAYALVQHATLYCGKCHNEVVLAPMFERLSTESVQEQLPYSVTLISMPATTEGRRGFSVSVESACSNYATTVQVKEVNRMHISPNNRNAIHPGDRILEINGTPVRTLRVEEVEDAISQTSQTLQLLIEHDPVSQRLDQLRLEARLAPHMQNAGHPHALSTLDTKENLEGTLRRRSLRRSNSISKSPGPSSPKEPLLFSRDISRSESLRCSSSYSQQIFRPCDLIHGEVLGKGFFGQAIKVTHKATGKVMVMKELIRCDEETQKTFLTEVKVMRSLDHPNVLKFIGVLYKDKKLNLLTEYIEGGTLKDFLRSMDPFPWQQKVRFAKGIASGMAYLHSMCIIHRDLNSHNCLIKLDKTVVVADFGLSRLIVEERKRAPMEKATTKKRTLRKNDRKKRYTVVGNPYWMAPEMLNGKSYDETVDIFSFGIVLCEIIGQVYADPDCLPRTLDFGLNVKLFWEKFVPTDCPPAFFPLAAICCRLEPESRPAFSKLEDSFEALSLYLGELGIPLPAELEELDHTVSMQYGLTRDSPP

protein kinases (human kinome) (Homo sapiens, UniProt Q9H0K1), sequence (Q9H0K1 whole entry): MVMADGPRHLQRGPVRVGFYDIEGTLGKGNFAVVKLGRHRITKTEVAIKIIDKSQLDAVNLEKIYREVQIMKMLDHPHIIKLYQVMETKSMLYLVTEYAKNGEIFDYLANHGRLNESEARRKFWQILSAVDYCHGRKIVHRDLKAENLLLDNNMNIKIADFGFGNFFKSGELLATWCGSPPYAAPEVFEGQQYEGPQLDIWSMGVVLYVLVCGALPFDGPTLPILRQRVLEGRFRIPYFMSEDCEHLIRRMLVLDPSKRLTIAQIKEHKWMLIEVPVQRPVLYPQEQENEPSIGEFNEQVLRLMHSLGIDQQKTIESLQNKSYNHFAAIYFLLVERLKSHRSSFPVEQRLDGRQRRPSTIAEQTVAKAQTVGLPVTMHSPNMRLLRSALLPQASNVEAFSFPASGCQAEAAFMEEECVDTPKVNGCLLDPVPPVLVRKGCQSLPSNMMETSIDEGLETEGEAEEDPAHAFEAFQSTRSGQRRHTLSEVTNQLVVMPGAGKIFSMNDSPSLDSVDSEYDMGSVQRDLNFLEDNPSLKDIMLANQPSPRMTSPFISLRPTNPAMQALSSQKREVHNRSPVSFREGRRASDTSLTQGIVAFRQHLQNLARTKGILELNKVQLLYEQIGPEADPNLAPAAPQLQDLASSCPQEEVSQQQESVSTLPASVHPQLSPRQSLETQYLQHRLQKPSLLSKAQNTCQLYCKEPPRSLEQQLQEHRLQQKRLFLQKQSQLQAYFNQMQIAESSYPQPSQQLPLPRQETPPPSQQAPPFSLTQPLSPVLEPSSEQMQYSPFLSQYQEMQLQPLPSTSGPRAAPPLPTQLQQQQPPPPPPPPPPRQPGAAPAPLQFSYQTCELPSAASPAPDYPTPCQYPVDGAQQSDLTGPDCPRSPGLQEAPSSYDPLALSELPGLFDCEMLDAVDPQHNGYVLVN
protein kinases (human kinome) (Homo sapiens, UniProt P11802), sequence (P11802 whole entry): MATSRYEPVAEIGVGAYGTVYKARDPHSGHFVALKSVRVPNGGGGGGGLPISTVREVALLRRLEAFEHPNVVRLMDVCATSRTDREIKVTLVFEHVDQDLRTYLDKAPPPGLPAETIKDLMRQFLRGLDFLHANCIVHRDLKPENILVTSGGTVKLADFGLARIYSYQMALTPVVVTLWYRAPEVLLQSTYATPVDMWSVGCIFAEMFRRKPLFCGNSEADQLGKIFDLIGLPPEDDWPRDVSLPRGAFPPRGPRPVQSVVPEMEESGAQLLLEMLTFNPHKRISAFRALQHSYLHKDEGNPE

O=C(COc1cccc2c1C(=O)N(C1CCC(=O)NC1=O)C2=O)NCCCCCCCN1CCc2cc(Nc3ncc(C4CC4)c(NCCCNC(=O)C4CCC4)n3)ccc2C1 (centres unmarked) [BSJ.04.178]
logFC of SIK2 ([1]; experiment wp134): −1.351 | logFC SIK2 (Q9H0K1) ([1]; experiment wp134): −1.351 | logFC [2]: −1.683 | logFC ULK1 ([2]; experiment wp134): −1.683 | logFC AURKA (O14965) ([3]; experiment wp134): −0.4772

CS(=O)(=O)Nc1cccc(-c2csc3cnc(Nc4ccc(N5CCN(CCCCCOc6cccc7c6C(=O)N(C6CCC(=O)NC6=O)C7=O)CC5)cc4)nc23)c1 (centres unmarked) [DB0614, N-(3-(2-((4-(4-(5-((2-(2,6-Dioxopiperidin-3-yl)-1,3-dioxoisoindolin-4-yl)oxy)pentyl)piperazin-1-yl)phenyl)amino)thieno[3,2-d]pyrimidin-7-yl)phenyl)methanesulfonamide]
logFC of SIK2 ([1]; experiment wp045): −0.5292 | logFC of SIK2 ([1]; experiment wp117): −0.3766 | logFC SIK2 ([1]; experiment wp045): −0.5292 | logFC SIK2 (Q9H0K1) ([1]; experiment wp117): −0.3766 | logFC [2]: −0.869 and −1.105 | logFC ULK1 ([2]; experiment wp045): −0.869 | logFC ULK1 ([2]; experiment wp117): −1.105 | logFC AURKA (O14965) ([3]; experiment wp045): −0.385 | logFC AURKA (O14965) ([3]; experiment wp117): −0.4547 | logFC CDK4 (P11802) ([4]; experiment wp045): −1.539 | logFC CDK4 (P11802) ([4]; experiment wp117): −1.539 | logFC LIMK2 ([5]; experiment wp045): −0.437 | logFC of LIMK2 ([5]; experiment wp045): −0.437

CC(C)S(=O)(=O)c1ccccc1Nc1nc(Nc2ccc(N3CCN(CCOCCOCCC(=O)NCCNc4cccc5c4CN(C4CCC(=O)NC4=O)C5=O)CC3)cc2)ncc1Cl (centres unmarked) [TL13.97]
logFC [2]: −1.877 | logFC ULK1 ([2]; experiment wp137): −1.877 | logFC AURKA (O14965) ([3]; experiment wp014): −0.3268 | logFC AURKA (O14965) ([3]; experiment wp137): −1.612 | logFC CDK4 (P11802) ([4]; experiment wp137): −0.9676 | logFC LIMK2 ([5]; experiment wp137): −0.9054 | logFC of LIMK2 ([5]; experiment wp137): −0.9054

CS(=O)(=O)Nc1cccc(-c2csc3cnc(Nc4ccc(N5CCN(CCOCCOCCOc6cccc7c6C(=O)N(C6CCC(=O)NC6=O)C7=O)CC5)cc4)nc23)c1 (centres unmarked) [RSS0628]
logFC [2]: −0.5583 | logFC ULK1 ([2]; experiment wp045): −0.5583 | logFC AURKA (O14965) ([3]; experiment wp045): −1.13 | logFC CDK4 (P11802) ([4]; experiment wp045): −1.422 | logFC LIMK2 ([5]; experiment wp045): −0.7182 | logFC of LIMK2 ([5]; experiment wp045): −0.7182

Cc1ncsc1-c1ccc([C@H](C)NC(=O)[C@@H]2C[C@@H](O)CN2C(=O)[C@@H](NC(=O)CCCCCN2CCN(c3ccc(Nc4ncc5scc(-c6cccc(NS(C)(=O)=O)c6)c5n4)cc3)CC2)C(C)(C)C)cc1 [RSS0680, (2S,4R)-1-((S)-3,3-Dimethyl-2-(6-(4-(4-((7-(3-(methylsulfonamido)phenyl)thieno[3,2-d]pyrimidin-2-yl)amino)phenyl)piperazin-1-yl)hexanamido)butanoyl)-4-hydroxy-N—((S)-1-(4-(4-methylthiazol-5yl)phenyl)ethyl)pyrrolidine-2-carboxamide]
logFC of SIK2 ([1]; experiment wp080): −0.6986 | logFC of SIK2 ([1]; experiment wp117): −0.7184 | logFC SIK2 ([1]; experiment wp080): −0.6986 | logFC SIK2 (Q9H0K1) ([1]; experiment wp117): −0.7184 | logFC [2]: −0.4057 and −0.4996 | logFC ULK1 ([2]; experiment wp080): −0.4057 | logFC ULK1 ([2]; experiment wp117): −0.4996 | logFC CDK4 (P11802) ([4]; experiment wp080): −1.724 | logFC CDK4 (P11802) ([4]; experiment wp117): −1.679 | logFC LIMK2 ([5]; experiment wp080): −0.8809 | logFC LIMK2 ([5]; experiment wp117): −1.109 | logFC of LIMK2 ([5]; experiment wp080): −0.8809 | logFC of LIMK2 ([5]; experiment wp117): −1.109
